Data reported in EP3958980B1, “TARGETED NOVEL TRIAZOLOTHIADIAZINE DERIVATIVES FOR THE TREATMENT OF LUNG CANCER” (Anadolu Universitesi, priority 2020, dated 2021).
Converted amounts (≈) assume the structure as drawn. “And” between values parts separate entries of the source, which are not always exact repeats. Equal values may be shown once.

Legend:
COX-1 = biological target: T1, COX-1 (Homo sapiens, UniProt P23219); assay: COX activity assay (colorimetric kit) on lysates of treated A549 cells, COX-1; type: cell-based; conditions: 24 hours incubation, IC50 concentrations
T1 construct: endogenous in cells; host or cells: A549
Procedure: (§1) The intracellular COX, Akt and ROCK inhibitory effects of the active compounds determined with the MTT assay, were measured with the colorimetric assay according to the manufacturer's recommendations.
(§2) COX activity was carried out using Cayman COX activity assay kit in compliance with the manufacturer's recommendations. Briefly, 150 µL of each sample was kept in boiling water for 5 minutes and centrifuged at 8000 × g for 1 minute and it was used to obtain background values. […] 110 µL assay solution, 10 µL hemin and 40 µL sample, 10 µL DuP-697 or SC-560 was added to the inhibitor wells (DuP-697 inhibits COX-2 activity; while SC-560 inhibits COX-1 activity). The plate was shaked for a few seconds and it was left at 25 °C for 5 minutes. 20 µL colorimetric substrate was added to all wells. Moreover, a reaction was started by adding 20 µL arachidonic acid solution and the plate was shaked for a few seconds and it was left at 25 °C for 5 minutes. The absorbance values were read at 540 nm.

caspase-3 = assay: Caspase-3 activity by flow cytometry; type: cell-based, human; conditions: A549 cells, 24 hours, IC50 concentrations
Procedure: After the active compounds were determined with the MTT assay, their caspase-3 activities on A549 cells depending on IC50 concentrations were determined in flow cytometry with BD, Pharmingen flow cytometry kit according to the manufacturer's recommendations. Briefly, the cells were incubated at the determined doses and times with the compounds. The cells were washed twice with cold 1 X PBS. These cells were suspended with BD Cytofix/Cytoperm solution (1×10^6 cell / 0.5 mL). Then they were left to wait on ice for 20 minutes. After centrifugation, the cells were removed with the BD Cytofix/Cytoperm solution. The cells were washed twice with BD Perm/Wash™ buffer (1×10^6 cell/0.5 mL). Afterwards the cells were re-suspended with BD Perm/Wash™ buffer and antibodies and they were kept at room temperature for 30 minutes. For each test, the cells were washed in 1 mL BD Perm/Wash^TM buffer and were suspended in 0.5 mL BD Perm/Wash^TM buffer and they were analyzed with flow cytometry.

[1] = system: A549 human lung adenocarcinoma cells; assay: MTT assay, in vitro cytotoxic activity on A549; type: cell-based; conditions: for IC50: Homo sapiens, A549, 24 hour incubation, read-out: IC50 values (µg/mL) A549 cell line
Procedure: (§3) The in vitro cytotoxic effects of the compounds were determined with the MTT assay. For this purpose, MTT test was performed using A549 and CCD-19Lu cell lines. After the cell lines used in the invention were centrifuged following taking them out from liquid nitrogen (-196 °C), the cells were cultured in a CO2 incubator comprising 5% CO2 at 37 °C in flasks containing 10% fetal bovine serum (FBS), where CCD-19Lu cells were cultured with Dulbecco's Modified Eagle's Medium (DMEM) and A549 cells were cultured with Roswell Park Memorial Institute (RPMI). The cells that reach the sufficient number for the assay, were seeded to 96 well plates such that 2×10^3 cells were placed in each well and at the same time, components at concentrations of 1-500 µg/mL were added to cells and they were incubated at 37 °C. At the end of the 24 hour incubation period, the MTT powder (5 mg/mL in 1 × phosphate buffered saline (PBS)) was added to each well (20 µL). After a 2-4 h period under the same conditions, the medium was removed from the plate and 100 µL of DMSO was added to each well to dissolve the dye and kept for 10 minutes. Then the plates were read at a wavelength of 540 nm using ELx808-IU Bio-Tek plate reader. The control cell viability which was not treated with the components was accepted to be 100% and the viability rates of the cells were expressed as %. […] According to the results obtained, the dose range was extended until the IC50 value was determined. MTT assay is a frequently used method which measures the cytotoxic effects of the compounds on the cells by converting the yellow colored MTT stain into purple colored formazan crystals via the mitochondrial succinate dehydrogenase activity. In the cytotoxic activity tests of the compounds, A549 lung adenocarcinoma and CCDLu19 normal lung fibroblast cell lines were used.

COX-2 = biological target: T2, COX-2 (Homo sapiens, UniProt P35354); assay: COX activity assay (colorimetric kit) on lysates of treated A549 cells, COX-2; type: cell-based; conditions: 24 hours incubation, IC50 concentrations
T2 construct: endogenous in cells; host or cells: A549
T2 sequence (P35354 18-604): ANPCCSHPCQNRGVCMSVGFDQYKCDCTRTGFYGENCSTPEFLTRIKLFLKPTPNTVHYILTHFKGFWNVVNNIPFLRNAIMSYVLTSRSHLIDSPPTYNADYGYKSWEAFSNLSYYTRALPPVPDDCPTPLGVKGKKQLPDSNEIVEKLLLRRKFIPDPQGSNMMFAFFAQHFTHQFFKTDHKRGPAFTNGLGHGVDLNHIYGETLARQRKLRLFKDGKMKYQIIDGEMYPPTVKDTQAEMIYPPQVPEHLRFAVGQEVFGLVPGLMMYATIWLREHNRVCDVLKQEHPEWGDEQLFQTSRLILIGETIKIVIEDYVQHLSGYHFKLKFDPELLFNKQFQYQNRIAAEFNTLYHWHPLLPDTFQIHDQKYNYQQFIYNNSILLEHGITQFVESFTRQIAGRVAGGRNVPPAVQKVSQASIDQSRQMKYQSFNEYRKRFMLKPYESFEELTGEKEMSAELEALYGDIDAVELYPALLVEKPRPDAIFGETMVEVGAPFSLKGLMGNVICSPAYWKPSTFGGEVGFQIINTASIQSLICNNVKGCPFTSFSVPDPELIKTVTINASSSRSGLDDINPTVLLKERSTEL
Procedure: as §1, §2

[2] = system: CCD-19Lu normal lung fibroblast cells; assay: MTT assay, in vitro cytotoxic activity on CCD-19Lu; type: cell-based; conditions: for IC50: Homo sapiens, CCD 19Lu, 24 hour incubation, read-out: IC50 values (µg/mL) CCDLul9 cell line
Procedure: as §3, with “determined.” for “determined. MTT assay is a frequently used method which measures the cytotoxic effects of the compounds on the cells by converting the yellow colored MTT stain into purple colored formazan crystals via the mitochondrial succinate dehydrogenase activity. In the cytotoxic activity tests of the compounds, A549 lung adenocarcinoma and CCDLu19 normal lung fibroblast cell lines were used.”
MTT assay is a frequently used method which measures the cytotoxic effects of the compounds on the cells by converting the yellow colored MTT stain into purple colored formazan crystals via the mitochondrial succinate dehydrogenase activity. In the cytotoxic activity tests of the compounds, A549 lung adenocarcinoma and CCDLu19 normal lung fibroblast cell lines were used.

T1 sequence (P23219 24-599): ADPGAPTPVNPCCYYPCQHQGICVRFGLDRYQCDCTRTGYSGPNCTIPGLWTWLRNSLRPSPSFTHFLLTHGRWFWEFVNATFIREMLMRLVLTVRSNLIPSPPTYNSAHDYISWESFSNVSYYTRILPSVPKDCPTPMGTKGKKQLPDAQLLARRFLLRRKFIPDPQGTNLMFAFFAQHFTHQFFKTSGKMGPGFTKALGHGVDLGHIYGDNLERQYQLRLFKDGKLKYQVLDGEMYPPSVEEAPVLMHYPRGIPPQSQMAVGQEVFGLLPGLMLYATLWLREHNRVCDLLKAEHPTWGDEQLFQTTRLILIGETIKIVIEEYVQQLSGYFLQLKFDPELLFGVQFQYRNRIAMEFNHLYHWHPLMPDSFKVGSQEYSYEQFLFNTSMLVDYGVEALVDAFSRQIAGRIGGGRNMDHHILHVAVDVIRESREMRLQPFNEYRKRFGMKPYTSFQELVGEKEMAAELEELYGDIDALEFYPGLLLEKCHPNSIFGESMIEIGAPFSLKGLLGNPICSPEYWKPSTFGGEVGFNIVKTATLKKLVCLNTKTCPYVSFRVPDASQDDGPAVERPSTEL

Row | Compound | COX-1 Inhibition% (COX-1) [%] | COX-1 activity (U/mL) (COX-1) | Caspase-3 negative (-) cells% (caspase-3) [%] | Caspase-3 positive (+) cells% (caspase-3) [%] | IC50 [1] [µg/mL] | COX-2 Inhibition% (COX-2) | COX-2 activity (U/mL) (COX-2) | cytotoxicity against CCDLu19 cells (in words) [2] | IC50 [2] [µg/mL] | IC50 values (µg/mL) A549 cell line ([1]; 24 hour incubation) [µg/mL]
1 | c1ccc(-c2ccc(C3=Nn4c(CCc5ccc6c(c5)OCO6)nnc4SC3)cc2)cc1 [Compound 14, 3-[2-(1,3-Benzodioxole-5-yl)ethyl]-6-(biphenyl-4-yl)-7H-[1,2,4]triazolo[3,4-b] [1,3,4]thiadiazine] | 2.19 | 4.15 | 96.60 | 3.70 | 2.63 ± 0.72 (≈ 5.97 µM) | 15.17% and 15.70% | 3.56 | non-cytotoxic | 65 ± 5 (≈ 148 µM) | 
2 | FC(F)(F)c1ccc(C2=Nn3c(CCc4ccc5c(c4)OCO5)nnc3SC2)cc1 [Compound 11, 3-[2-(1,3-Benzodioxole-5-yl)ethyl]-6-(4-trifluoromethylphenyl)-7H-[1,2,4]triazolo [3,4-b][1,3,4]thiadiazine] | 54.18 | 1.88 | 97.00 | 3.10 | 0.73 ± 0.16 (≈ 1.69 µM) |  | 1.46 | non-cytotoxic | 113 ± 5.77 (≈ 262 µM) | 
3 | Fc1cccc(C2=Nn3c(CCc4ccc5c(c4)OCO5)nnc3SC2)c1 [Compound 12, 3-[2-(1,3-Benzodioxole-5-yl)ethyl]-6-(3-fluorophenyl)-7H-[1,2,4]triazolo [3,4-b] [1,3,4]thiadiazine] |  | 2.51 | 97.80 | 2.40 | 0.8 ± 0.05 (≈ 2.09 µM) | 53.52% | 1.95 | non-cytotoxic | 34.3 ± 2.08 (≈ 89.8 µM) | 
4 | CS(=O)(=O)c1ccc(C2=Nn3c(CCc4ccc5c(c4)OCO5)nnc3SC2)cc1 [Compound 9] | 35.21 | 3.41 | 96.70 | 3.40 | 5.75 ± 2.47 (≈ 13 µM) | 32.66% | 3.60 | non-cytotoxic | 102 ± 10.4 (≈ 230 µM) | 
5 | N.N.[Cl][Pt][Cl] [Cisplatin, reference compound] | 24.65 | 3.08 | 89.70 | 10.30 |  | 43.46% | 2.38 |  |  | 23.00 ± 1.41
